Here are results for 20 compounds from patent US11999746B2, “Compounds” (GlaxoSmithKline Intellectual Property Development Limited, priority 2014, dated 2024).

The target of assay [1] is T1, recombinant human Lp-PLA2 (Homo sapiens, UniProt Q13093).
T1 sequence (Q13093 22-441): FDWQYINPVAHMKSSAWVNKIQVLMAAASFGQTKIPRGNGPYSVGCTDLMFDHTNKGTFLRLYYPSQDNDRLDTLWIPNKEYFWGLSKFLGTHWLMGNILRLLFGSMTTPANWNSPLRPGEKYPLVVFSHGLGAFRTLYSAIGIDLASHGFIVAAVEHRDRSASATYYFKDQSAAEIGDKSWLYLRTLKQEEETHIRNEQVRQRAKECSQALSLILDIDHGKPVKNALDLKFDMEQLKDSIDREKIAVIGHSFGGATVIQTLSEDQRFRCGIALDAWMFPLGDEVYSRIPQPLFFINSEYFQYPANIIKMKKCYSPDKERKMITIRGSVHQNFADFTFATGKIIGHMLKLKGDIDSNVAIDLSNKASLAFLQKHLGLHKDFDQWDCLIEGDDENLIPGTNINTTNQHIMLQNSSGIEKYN
In words: (1a) PED6 assay, recombinant human Lp-PLA2 (rhLp-PLA2). The format is biochemical. As to conditions: Examples 1-167 and 413-430 were tested here, one experiment or average of multiple experiments, read-out: rhLp-PLA2 (pIC50) (converted). In a few lines:
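PED6 (2 μM final after 1:1 addition of 4 μM stock) cleavage by rhLp-PLA2 (4 nM working solution) in 50 mM HEPES pH 7.4, 150 mM NaCl, 1 mM CHAPS; compounds preincubated with enzyme 30 minutes, reaction 20 min at room temperature. Fluorescence at ex 480/em 540; pIC50 from curve fit.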

In another assay the target is T2, Lp-PLA2 in human plasma (Homo sapiens, UniProt Q13093).
T2 construct: from tissue; host or cells: pooled human plasma
T2 sequence (Q13093 22-441): T1 sequence (Q13093 22-441)
The experiment in a line: (3a) Lp-PLA2 human plasma Thio-PAF assay. Type of assay: biochemical. To be noted: (3a) Thio-PAF assay, pooled human plasma; Examples 1-265 and 413-430 were tested here; read-out: pIC50 in the Lp-PLA2 human plasma assay (converted). In a few lines:
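Pooled human plasma preincubated 30 min with serially diluted compound, then given 2-thio-PAF substrate with CPM and NEM in 50 mM HEPES pH 7.4, 150 mM NaCl, 1 mM CHAPS. Reaction quenched with TFA after 2 min; CPM thiol-adduct fluorescence read at ex 380/em 485 after 40 min; pIC50 reported.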

As to `O=c1nc(OCc2cc(F)c(Oc3cnc(C(F)(F)F)nc3)c(F)c2)cc2n1CC1CCCN21` (stereo not shown) [Example E90, 3-((3,5-Difluoro-4-((2-(trifluoromethyl)pyrimidin-5-yl)oxy)benzyl)oxy)-7,8,8a,9-tetrahydro pyrrolo[1′,2′:3,4]imidazo[1,2-c]pyrimidin-1(6H)-one], the IC50 is not above 1 nM in assay [1] and not above 100 nM at Lp-PLA2 in human plasma.

`CN1c2cc(OCc3cc(F)c(F)cc3F)nc(=O)n2CC12CCCC2` [Example 415, 1-methyl-7′-((2,4,5-trifluorobenzyl)oxy)-1′H-spiro[cyclopentane-1,2′-imidazo[1,2-c]pyrimidin]-5′(3′H)-one]: the figures for the IC50 (in assay [1]; at Lp-PLA2 in human plasma) were not above 100 nM and not above 10000 nM, respectively.

With `O=c1nc(OCc2cc(F)c(Oc3ccc(F)c(F)c3)c(F)c2)cc2n1C[C@@H]1CCCN21` [Example E74, (S)-3-((4-(3,4-difluorophenoxy)-3,5-difluorobenzyl)oxy)-7,8,8a,9-tetrahydropyrrolo[1′,2′:3,4]imidazo[1,2-c]pyrimidin-1(6H)-one], the IC50 was not above 100 nM in assay [1] and not above 10000 nM on Lp-PLA2 in human plasma.

As to `O=c1nc(OCc2cc(F)c(Oc3ccc(C(F)(F)F)nc3)c(F)c2)cc2n1C[C@@H]1CCCN21` [Example E80, (S)-3-((3,5-difluoro-4-((6-(trifluoromethyl)pyridin-3-yl)oxy)benzyl)oxy)-7,8,8a,9-tetrahydro pyrrolo[1′,2′:3,4]imidazo[1,2-c]pyrimidin-1(6H)-one], the figures for the IC50 (in assay [1]; at Lp-PLA2 in human plasma) were not above 100 nM and not above 10000 nM, respectively.

Consider `O=c1nc(OCCc2cccs2)cc2n1C[C@@H]1CCCCN21` [Example E36, (S)-3-(2-(Thiophen-2-yl)ethoxy)-6,7,8,9,9a,10-hexahydro-1H-pyrido[1′,2′:3,4]imidazo[1,2-c]pyrimidin-1-one], for which the IC50 is not above 100 nM in assay [1] and not above 10000 nM on Lp-PLA2 in human plasma.

Turning to `O=c1nc(OCc2ccc(F)cc2F)cc2n1C[C@@H]1CCCCN21` [Example E57, (S)-3-((2,4-Difluorobenzyl)oxy)-6,7,8,9,9a,10-hexahydro-1H-pyrido[1′,2′:3,4]imidazo[1,2-c] pyrimidin-1-one], the IC50 is not above 100 nM in assay [1] and not above 10000 nM on Lp-PLA2 in human plasma.

`CCCn1cc(Oc2c(F)cc(COc3cc4n(c(=O)n3)C[C@H]3COCCN43)cc2F)cn1` [Example E112, (S)-7-((3,5-difluoro-4-((1-propyl-1H-pyrazol-4-yl)oxy)benzyl)oxy)-3,4,11,11atetrahydropyrimido[6′,1′:2,3]imidazo[5,1-c][1,4]oxazin-9(1H)-one]: the IC50 in assay [1] is not above 1 nM; at Lp-PLA2 in human plasma, not above 100 nM.

Turning to `O=c1nc(OCc2cc(F)c(OC3(CCF)CC3)c(F)c2)cc2n1C[C@@H]1CCOCN21` [Example E140, (S)-3-((3,5-difluoro-4-(1-(2-fluoroethyl)cyclopropoxy)benzyl)oxy)-8,9,9a,10-tetrahydropyrimido[6′,1′:2,3]imidazo[1,5-c][1,3]oxazin-1(6H)-one], the IC50 in assay [1] was not above 100 nM; on Lp-PLA2 in human plasma, not above 10000 nM.

In the case of `O=c1nc(OCc2cc(F)c(Oc3ccnc(C(F)(F)F)c3)c(F)c2)cc2n1CC1CCCCN21` (stereo not shown) [Example E45, 3-((3,5-Difluoro-4-((2-(trifluoromethyl)pyridin-4-yl)oxy)benzyl)oxy)-6,7,8,9,9a,10-hexahydro-1H-pyrido[1′,2′:3,4]imidazo[1,2-c]pyrimidin-1-one], the IC50 in assay [1] is not above 1 nM; at Lp-PLA2 in human plasma, not above 100 nM.

In the case of `O=c1nc(OCc2ccc(Cl)c(F)c2)cc2n1C[C@H]1COCN21` [Example E145, (S)-6-((4-chloro-3-fluorobenzyl)oxy)-10,10a-dihydro-1H-oxazolo[3′,4′:3,4]imidazo[1,2-c] pyrimidin-8(3H)-one], the IC50 in assay [1] is not above 100 nM; on Lp-PLA2 in human plasma it was not above 10000 nM.

In the case of `O=c1nc(OCc2cc(F)cc(F)c2)cc2n1CC1CCCCN21` (stereo not shown) [Example E3, 3-((3,5-Difluorobenzyl)oxy)-6,7,8,9,9a,10-hexahydro-1H-pyrido[1′,2′:3,4]imidazo-[1,2-c] pyrimidin-1-one], the figures for the IC50 (in assay [1]; at Lp-PLA2 in human plasma) were not above 100 nM and not above 10000 nM, respectively.

Regarding `O=c1nc(OCc2cc(F)c(Oc3ccnc(C(F)(F)F)c3)c(F)c2)cc2n1CC1CCCCN21` (stereo not shown) [Example E41], the results for the IC50 (in assay [1]; on Lp-PLA2 in human plasma) were not above 1 nM and not above 100 nM, respectively.

As for `O=c1nc(OCc2ccc(Oc3ccnc(C(F)(F)F)c3)c(F)c2)cc2n1CC1CCCCN21` (stereo not shown) [Example E44, 3-((3-Fluoro-4-((2-(trifluoromethyl)pyridin-4-yl)oxy)benzyl)oxy)-6,7,8,9,9a,10-hexahydro-1H-pyrido[1′,2′:3,4]imidazo[1,2-c]pyrimidin-1-one], the results for the IC50 (in assay [1]; at Lp-PLA2 in human plasma) were not above 1 nM and not above 100 nM, respectively.

As for `N#Cc1ccc(Oc2ccc(COc3cc4n(c(=O)n3)CC3CCCCN43)cc2C#N)cc1Cl` (stereo not shown) [Example E20, 2-Chloro-4-(2-cyano-4-(((1-oxo-6,7,8,9,9a,10-hexahydro-1H-pyrido[1′,2′:3,4]imidazo[1,2-c]pyrimidin-3-yl)oxy)methyl)phenoxy)benzonitrile], the IC50 in assay [1] is not above 1 nM; on Lp-PLA2 in human plasma, not above 100 nM.

As for `N#Cc1cccc(COc2cc3n(c(=O)n2)CC2CCCCN32)c1` (stereo not shown) [Example E6, 3-(((1-Oxo-6,7,8,9,9a,10-hexahydro-1H-pyrido[1′,2′:3,4]imidazo[1,2-c]pyrimidin-3-yl)oxy)methyl)benzonitrile], the IC50 was not above 100 nM in assay [1] and not above 10000 nM on Lp-PLA2 in human plasma.

As to `CN1c2cc(OCc3cc(F)c(F)c(F)c3)nc(=O)n2CC12CCCC2` [Example 414, 1′-methyl-7′-((3,4,5-trifluorobenzyl)oxy)-1′H-spiro[cyclopentane-1,2′-imidazo[1,2-c]pyrimidin]-5′(3′H)-one], the IC50 (in assay [1]; on Lp-PLA2 in human plasma) was not above 100 nM in each case.

In the case of `N#Cc1cc(COc2cc3n(c(=O)n2)CC2CCCCN32)ccc1Oc1ccc(Cl)c(F)c1` (stereo not shown) [Example E24, 2-(4-Chloro-3-fluorophenoxy)-5-(((1-oxo-6,7,8,9,9a,10-hexahydro-1H pyrido-[1′,2′:3,4]imidazo[1,2-c]pyrimidin-3-yl)oxy)methyl)benzonitrile], the IC50 is not above 1 nM in assay [1] and not above 100 nM at Lp-PLA2 in human plasma.

Take `N#Cc1cc(COc2cc3n(c(=O)n2)CC2CCCN32)ccc1Oc1cccc(F)c1` (stereo not shown) [Example E85, 2-(3-fluorophenoxy)-5-(((1-oxo-1,6,7,8,8a,9-hexahydropyrrolo[1,2′:3,4]imidazo[1,2-c]pyrimidin-3-yl)oxy)methyl)benzonitrile]: the IC50 was not above 1 nM in assay [1] and not above 100 nM at Lp-PLA2 in human plasma.

For the compound `O=c1nc(OCc2ccc(F)c(F)c2)cc2n1C[C@@H]1CCCCN21` [Example E31, (S)-3-((3,4-Difluorobenzyl)oxy)-6,7,8,9,9a,10-hexahydro-1H-pyrido[1′,2′:3,4]imidazo[1,2-c]pyrimidin-1-one], the IC50 in assay [1] is not above 100 nM; on Lp-PLA2 in human plasma it was not above 10000 nM.

Take `O=c1nc(OCc2cc(F)c(OC3CCCC(F)(F)C3)c(F)c2)cc2n1C[C@@H]1CCCN21` (stereo partly drawn) [Example E93, (S)-3-((4-((3,3-difluorocyclohexyl)oxy)-3,5-difluorobenzyl)oxy)-7,8,8a,9-tetrahydropyrrolo[1′,2′:3,4]imidazo[1,2-c]pyrimidin-1(6H)-one]: the values for the IC50 (in assay [1]; on Lp-PLA2 in human plasma) were not above 100 nM and not above 10000 nM, respectively.
